Data as given in patent US20030153009A1, “Method for influencing kinase activity with AG879” (priority 2002, published 2003).

Columns and labels:
PAK1 [1] = conditions: cited from earlier work
[2] = system: RAS transformation of cells; conditions: in vitro and in vivo (b6); malignant transformation of cells (b7); cited from earlier work
FAK = target: T1, FAK (Mus musculus, UniProt P34152); assay: Tyr phosphorylation of FAK in RAS cells (anti-FAK immunoprecipitation, blot); format: cell-based
T1 construct: RAS cells were again serum starved, lysed, and immunoprecipitated using an anti-FAK antibody; endogenous in cells; host or cells: RAS cells (v-Ha-RAS transformed NIH 3T3 fibroblasts)
T1 sequence (P34152 whole entry): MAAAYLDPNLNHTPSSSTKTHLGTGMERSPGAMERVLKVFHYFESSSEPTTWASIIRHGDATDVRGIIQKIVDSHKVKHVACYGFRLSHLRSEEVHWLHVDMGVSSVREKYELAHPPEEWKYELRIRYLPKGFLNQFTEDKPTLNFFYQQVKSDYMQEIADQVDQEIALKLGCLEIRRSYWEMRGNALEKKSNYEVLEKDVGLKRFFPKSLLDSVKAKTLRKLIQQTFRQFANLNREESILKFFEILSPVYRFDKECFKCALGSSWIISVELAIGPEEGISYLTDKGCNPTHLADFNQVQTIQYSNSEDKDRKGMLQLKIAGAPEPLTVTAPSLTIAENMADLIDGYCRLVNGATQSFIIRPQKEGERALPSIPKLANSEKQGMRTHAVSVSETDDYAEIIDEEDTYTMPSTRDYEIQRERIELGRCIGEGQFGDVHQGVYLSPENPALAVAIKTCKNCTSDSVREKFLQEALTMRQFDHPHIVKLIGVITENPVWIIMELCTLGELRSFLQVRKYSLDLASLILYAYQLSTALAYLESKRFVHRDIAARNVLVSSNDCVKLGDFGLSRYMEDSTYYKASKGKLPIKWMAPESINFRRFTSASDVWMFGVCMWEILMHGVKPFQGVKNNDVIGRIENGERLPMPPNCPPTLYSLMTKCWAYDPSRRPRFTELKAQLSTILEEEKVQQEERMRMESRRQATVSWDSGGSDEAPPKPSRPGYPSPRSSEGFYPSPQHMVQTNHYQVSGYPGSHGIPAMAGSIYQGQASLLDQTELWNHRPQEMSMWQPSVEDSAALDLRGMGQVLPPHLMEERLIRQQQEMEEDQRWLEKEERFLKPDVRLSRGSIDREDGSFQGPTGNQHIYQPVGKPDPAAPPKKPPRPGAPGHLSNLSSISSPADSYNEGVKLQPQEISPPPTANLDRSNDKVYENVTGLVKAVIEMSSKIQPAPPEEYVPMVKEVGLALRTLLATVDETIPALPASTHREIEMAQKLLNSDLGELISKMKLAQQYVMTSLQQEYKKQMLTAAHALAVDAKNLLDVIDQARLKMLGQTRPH
From the text: (§1) In order to determine this, RAS cells were again serum starved, lysed, and immunoprecipitated using an anti-FAK antibody. The precipitates were then blotted, using either anti-phospo Tyr, anti-ETK, or anti-PAK1 antibodies, separately.

ITK = target: T2, ITK (Homo sapiens, UniProt Q08881); assay: In vitro kinase assay, TEC family member ITK; format: biochemical; conditions: concentration as high as 10 μM
T2 sequence (Q08881 1-620): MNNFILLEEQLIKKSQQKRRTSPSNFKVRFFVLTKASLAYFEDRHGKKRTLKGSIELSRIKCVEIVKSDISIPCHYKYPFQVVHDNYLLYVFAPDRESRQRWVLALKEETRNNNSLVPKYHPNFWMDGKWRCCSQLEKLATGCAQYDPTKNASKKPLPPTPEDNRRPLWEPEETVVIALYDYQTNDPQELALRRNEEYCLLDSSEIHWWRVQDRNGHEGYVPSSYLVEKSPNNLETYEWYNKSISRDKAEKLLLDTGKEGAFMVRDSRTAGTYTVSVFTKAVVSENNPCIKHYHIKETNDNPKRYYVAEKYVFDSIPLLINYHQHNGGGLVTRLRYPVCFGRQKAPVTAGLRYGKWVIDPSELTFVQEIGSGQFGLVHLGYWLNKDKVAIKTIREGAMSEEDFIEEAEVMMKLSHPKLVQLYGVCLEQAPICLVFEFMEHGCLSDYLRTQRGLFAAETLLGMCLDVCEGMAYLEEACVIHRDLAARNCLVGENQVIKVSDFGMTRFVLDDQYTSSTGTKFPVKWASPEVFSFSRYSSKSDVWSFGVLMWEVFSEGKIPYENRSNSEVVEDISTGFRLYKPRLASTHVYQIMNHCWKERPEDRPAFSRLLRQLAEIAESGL

ETK-PAK1 association = target: T3, ETK-PAK1 association (Mus musculus, UniProt P97504); assay: ETK-PAK1 association in AG879-treated RAS cells; format: cell-based; conditions: 10 nM
T3 construct: RAS cells were again lysed and immunoprecipitated with an anti-ETK antibody; endogenous in cells; host or cells: RAS cells (v-Ha-RAS transformed NIH 3T3 fibroblasts)
T3 sequence (P97504 1-651): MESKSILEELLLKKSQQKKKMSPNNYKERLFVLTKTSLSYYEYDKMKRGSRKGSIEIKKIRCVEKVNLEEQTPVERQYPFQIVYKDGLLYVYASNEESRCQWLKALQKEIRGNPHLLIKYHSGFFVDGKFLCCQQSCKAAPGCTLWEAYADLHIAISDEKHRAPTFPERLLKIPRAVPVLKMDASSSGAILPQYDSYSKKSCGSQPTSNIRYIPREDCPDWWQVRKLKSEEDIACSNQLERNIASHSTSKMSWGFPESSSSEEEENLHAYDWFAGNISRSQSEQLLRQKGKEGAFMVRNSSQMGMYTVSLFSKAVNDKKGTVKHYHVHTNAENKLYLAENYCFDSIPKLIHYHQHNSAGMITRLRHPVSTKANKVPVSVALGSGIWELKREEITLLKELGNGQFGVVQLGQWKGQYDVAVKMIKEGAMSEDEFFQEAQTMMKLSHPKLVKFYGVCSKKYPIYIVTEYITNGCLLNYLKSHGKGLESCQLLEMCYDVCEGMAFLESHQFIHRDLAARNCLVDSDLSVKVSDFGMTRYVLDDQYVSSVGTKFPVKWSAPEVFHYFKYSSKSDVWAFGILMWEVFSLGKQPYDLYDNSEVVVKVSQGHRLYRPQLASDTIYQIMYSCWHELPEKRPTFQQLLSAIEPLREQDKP
Procedure: (§2) Experiments were designed to determine if AG879 affected the Tyr activity of ETK. To do so, serum starved RAS cells were treated, with varying concentrations of AG879 for 1 hour. Cell lysates were prepared using, as lysis buffer, 20 mM Tris-HCl (pH 7.5), 100 mM NaCl, 10% glycerol, 1% Nonidet P-40, 10 mM NaF, 100 μM NaVO3, 1 mM phenylmethylsulfonyl fluoride, and 100 units/ml of aprotonin. Lysates were treated either with a rabbit, anti-ETK antibody, as an anti-phospo Tyr antibody, to immunoprecipitate the enzyme, and an ETK kinase assay was performed, in accordance with Chen, et. al., Nat. Cell Biol. 3:439-444 (2001); and Bagheri-Yarmand, et. al., supra, both of which are incorporated by reference. Endogenous PAK1, associated with ETK was used as a substrate, in either the absence, or varying concentrations of AG879.

ErbB2 = ErbB2 (Homo sapiens, UniProt P04626); conditions: cited from earlier work
FLK-1 = conditions: cited from earlier work
RAS induced sarcomas = conditions: nude mouse model; cited from earlier work
BTK = BTK (Homo sapiens, UniProt Q06187); assay: In vitro kinase assay, TEC family member BTK; format: biochemical; conditions: concentration as high as 10 μM
Sequence of BTK (Q06187 whole entry, species assumed): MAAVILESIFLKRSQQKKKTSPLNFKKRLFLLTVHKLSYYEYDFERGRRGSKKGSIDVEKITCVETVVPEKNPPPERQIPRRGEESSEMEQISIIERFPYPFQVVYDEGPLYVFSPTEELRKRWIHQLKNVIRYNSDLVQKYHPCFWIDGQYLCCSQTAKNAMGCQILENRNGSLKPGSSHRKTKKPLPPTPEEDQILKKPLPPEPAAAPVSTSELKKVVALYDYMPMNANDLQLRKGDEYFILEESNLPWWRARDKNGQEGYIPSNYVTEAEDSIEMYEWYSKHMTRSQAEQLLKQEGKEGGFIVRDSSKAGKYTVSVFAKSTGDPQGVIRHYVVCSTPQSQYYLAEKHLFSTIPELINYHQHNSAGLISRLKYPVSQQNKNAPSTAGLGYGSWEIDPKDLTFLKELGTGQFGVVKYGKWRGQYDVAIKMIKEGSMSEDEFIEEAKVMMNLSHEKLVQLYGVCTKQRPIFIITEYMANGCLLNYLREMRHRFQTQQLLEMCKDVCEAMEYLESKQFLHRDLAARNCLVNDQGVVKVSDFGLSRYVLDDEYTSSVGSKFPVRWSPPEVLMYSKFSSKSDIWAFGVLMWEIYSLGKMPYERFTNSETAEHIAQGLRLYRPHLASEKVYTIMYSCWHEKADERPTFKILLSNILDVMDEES

FAK-ETK interaction = target: T4, FAK-ETK interaction (Mus musculus, UniProt P97504); assay: FAK association with ETK in RAS cells; format: cell-based
T4 construct: blotted, using either anti-phospo Tyr, anti-ETK, or anti-PAK1 antibodies; endogenous in cells; host or cells: RAS cells (v-Ha-RAS transformed NIH 3T3 fibroblasts)
T4 sequence (P97504 1-651): T3 sequence (P97504 1-651)
From the text: as §1

FAK-PAK1 interaction = FAK-PAK1 interaction in RAS cells; format: cell-based; conditions: 10 nM
From the text: as §1

RAS cells = assay: Anchorage dependent growth, follow up experiments; format: cell-based; conditions: as much as 1 μM
From the text: The experiments which follow were designed to address this question.

PAK1 [3] = assay: PAK kinase assay on PAK1 immunoprecipitated from AG879-treated RAS cells; format: cell-based; conditions: RAS cells serum starved, AG879 0.01-10 μM for 1 hour; all concentrations tested
Procedure: RAS cells, which are NIH 3T3 fibroblasts transformed with v-Ha-RAS, were serum starved, overnight, and were then incubated with varying concentrations of AG879 (0.01-10 μM), for 1 hour. Following the hour of culture, the cells were lysed in lysis buffer (40 mM HEPES, pH 7.4, 1% Nonidet P-40, 1 mM EDTA, 100 mM NaCl, 25 mM NaF, 100 μM NaVO3, 1 MM phenylmethyl sulfonyl fluoride, and 100 units/ml aprotonin). Lysates were tested, via Bradford assay, to determine protein content, and those containing 1 mg of protein were admixed with an anti-PAK1 antibody to immunoprecipitate proteins.
Once the proteins were immunoprecipitated, they were analyzed in a PAK kinase assay, as described by Tang, et. al., Mol. Cell Biol 17: 4454-4464 (1997); He, et. al., Cancer J. 7:191-202 (2001), He, et. al., Cancer J 6:243-248 (2000); Obemeier, et. al., EMBO J 17:4328-4339 (1998), all of which are incorporated by reference.

[4] = system: RAS cells (NIH 3T3 fibroblasts transformed with v-Ha-RAS); assay: Colony formation of RAS cells in 0.35% top agar, 3 weeks; format: cell-based; conditions: colonies containing more than 100 cells, average of two experiments, read-out: IC50 for large colony formation
From the text: After three weeks, the colonies were stained, and counted, using standard methods. The control used was non-treated cells, plated into the same type of medium.

GST-PAK1 = GST-PAK1 (Homo sapiens, UniProt Q13153); assay: Kinase assay with fusion protein GST-PAK1; format: biochemical; conditions: even at 10 μM
Sequence of GST-PAK1 (Q13153 whole entry, the tested form may be a part): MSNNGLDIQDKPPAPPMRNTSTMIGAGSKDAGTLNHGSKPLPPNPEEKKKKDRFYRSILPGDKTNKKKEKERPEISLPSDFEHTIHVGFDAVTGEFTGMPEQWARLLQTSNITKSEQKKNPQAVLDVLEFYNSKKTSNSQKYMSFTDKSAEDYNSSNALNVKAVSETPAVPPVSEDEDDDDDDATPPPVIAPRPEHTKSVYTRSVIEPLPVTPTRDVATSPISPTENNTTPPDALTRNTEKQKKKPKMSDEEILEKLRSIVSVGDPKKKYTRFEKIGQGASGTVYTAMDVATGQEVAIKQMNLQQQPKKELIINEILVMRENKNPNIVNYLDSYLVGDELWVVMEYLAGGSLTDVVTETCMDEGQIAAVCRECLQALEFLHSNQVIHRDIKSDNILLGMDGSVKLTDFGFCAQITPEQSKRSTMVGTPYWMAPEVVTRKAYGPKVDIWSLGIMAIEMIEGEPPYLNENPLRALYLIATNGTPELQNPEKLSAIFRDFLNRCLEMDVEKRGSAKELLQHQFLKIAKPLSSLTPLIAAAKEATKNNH
Procedure: In follow up experiments a fusion protein “GST-PAK1” was prepared, and tested in the same way.

PAK1 [5] = assay: Tyr phosphorylation of PAK1 in AG879-treated RAS cells; format: cell-based; conditions: 10 nM
Procedure: as §2

ETK [6] = target: T5, ETK (Mus musculus, UniProt P97504); assay: In vitro kinase assay with ETK immunoprecipitated from RAS cells; format: biochemical; parameters: RAS cells were again lysed and immunoprecipitated with an anti-ETK antibody; endogenous in cells; host or cells: RAS cells (v-Ha-RAS transformed NIH 3T3 fibroblasts)
T5 sequence (P97504 1-651): T3 sequence (P97504 1-651)
Procedure: These experiments were designed to determined how AG879 inhibited ETK activity, i.e., was the inhibition direct, or indirect? To test this, RAS cells were again lysed and immunoprecipitated with an anti-ETK antibody, as described supra. Following this, the immunoprecipitates were used in an in vitro kinase assay, using no, or varying concentrations, of AG879 (0.001-10 μM), as described supra. Two, independent experiments, were carried out.

ETK [7] = target: T5, ETK; assay: Tyrosine phosphorylation of ETK in AG879-treated RAS cells (immunoprecipitation); format: cell-based; parameters: endogenous in cells; host or cells: RAS cells (v-Ha-RAS transformed NIH 3T3 fibroblasts); conditions: 1 hour
Procedure: as §2

TEC = target: T6, TEC (Homo sapiens, UniProt P42680); assay: In vitro kinase assay, TEC family member TEC; format: biochemical; conditions: concentration as high as 10 μM
T6 sequence (P42680 1-631): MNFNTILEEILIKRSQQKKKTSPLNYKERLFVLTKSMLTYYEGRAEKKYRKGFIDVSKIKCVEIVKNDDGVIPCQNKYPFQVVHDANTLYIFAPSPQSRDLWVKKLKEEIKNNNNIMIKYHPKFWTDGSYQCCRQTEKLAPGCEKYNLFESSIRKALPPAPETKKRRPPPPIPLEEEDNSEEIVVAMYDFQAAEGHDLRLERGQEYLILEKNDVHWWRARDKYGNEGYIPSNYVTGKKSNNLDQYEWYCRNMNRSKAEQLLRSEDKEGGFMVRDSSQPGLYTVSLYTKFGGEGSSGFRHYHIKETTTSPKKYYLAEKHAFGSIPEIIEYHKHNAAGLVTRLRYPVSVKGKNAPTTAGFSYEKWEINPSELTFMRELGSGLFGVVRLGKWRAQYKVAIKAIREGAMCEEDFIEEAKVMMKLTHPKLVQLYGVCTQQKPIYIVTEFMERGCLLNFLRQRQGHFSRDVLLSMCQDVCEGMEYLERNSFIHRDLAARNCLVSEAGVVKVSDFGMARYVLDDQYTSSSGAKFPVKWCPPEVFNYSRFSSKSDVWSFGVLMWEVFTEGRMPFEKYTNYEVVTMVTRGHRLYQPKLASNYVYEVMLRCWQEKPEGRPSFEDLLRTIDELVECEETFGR

For `COc1cc2ncnc(Nc3cccc(Cl)c3)c2cc1OC` [AG1478], the “RAS induced PAK1 activation” value (PAK1 [1]) is listed as “block” and the RAS induced transformation [2] is listed as “block”.
For AG879, the “Tyr phosphorylation of FAK” value (FAK; 10 nM) was “not at the lower concentration”, the “Tyr phosphorylation of FAK” value (FAK; 100 nM) was “suppressed” and the “inhibitory effect on ITK” value (ITK) was “no inhibitory effect”. For the same molecule, the ETK-PAK1 association (ETK-PAK1 association) was “suppress”, the ErbB2 inhibition (ErbB2) was “inhibitor” and the FLK-1 inhibition (FLK-1) was “inhibitor”. The “growth of RAS induced sarcomas in vivo” value (RAS induced sarcomas) was “suppressed”, the “inhibitory effect on BTK” value (BTK) was “no inhibitory effect” and the “FAK association with ETK” value (FAK-ETK interaction; 10 nM) was “not at the lower concentration”. The “FAK association with ETK” value (FAK-ETK interaction; 100 nM) was “suppressed”, the FAK-PAK1 interaction (FAK-PAK1 interaction) was “inhibit” and the “effect on anchorage dependent growth” value (RAS cells) was “did not effect”. The PAK1 kinase activity (PAK1 [3]) was “blocked quite strongly”, the IC50 [4] was ~10 nM and the “inhibition of kinase properties of GST-PAK1” value (GST-PAK1) was “did not inhibit”. The “Tyr phosphorylation of PAK1” value (PAK1 [5]) was “reduced”, the “Tyr phosphorylation of ETK” value (ETK [6]; 10 nM, ETK immunoprecipitate) was “inhibited” and the “Tyr phosphorylation of PAK1 by ETK” value (ETK [6]; 10 nM, ETK immunoprecipitate) was “inhibited”. The IC50 (ETK [6]; AG879 0.001-10 μM, two independent experiments) was ~5 nM, the “tyrosine phosphorylation of ETK” value (ETK [7]; 10 nM) was “inhibited” and the “level of the ETK protein” value (ETK [7]) was “did not affect”. The “inhibitory effect on TEC” value (TEC) was “no inhibitory effect”.
In the case of `COc1cc(/C=C(\C#N)C(N)=O)cc(CSc2nc3ccccc3s2)c1O` [AG825], the “RAS induced PAK1 activation” value (PAK1 [1]) is listed as “block”, the IC50 (PAK1 [1]; read-out: IC50, block of RAS induced activation of PAK1 and malignant transformation) is listed as ~350 nM and the RAS induced transformation [2] is listed as “block”.
In the case of `Cc1ccc(-c2nn(C(C)(C)C)c3ncnc(N)c23)cc1` [PP1], the “RAS induced PAK1 activation” value (PAK1 [1]) is listed as “block” and the RAS induced transformation [2] is listed as “block”.
